Here are results for 7 compounds from US5480887A, “Protease inhibitors” (Eli Lilly and Company, priority 1994, dated 1996).

Each structure is given as a SMILES string. Read-outs that look alike come from different tables or passages of the source.

Test [1] deals with T1, HIV-1 Protease (Human immunodeficiency virus type 1 group M subtype B, UniProt P04585).
T1 construct: HIV-1 Protease
Briefly: biochemical. The conditions noted are these: for IC50: read-out: Fluorescence Assay IC50 (converted); for inhibition at 0.00016 µg/mL: read-out: % inhibition at the stated concentration (ICx (0.16)). How it is done:
These compounds may be assayed using two assays: (1) an enzyme inhibition assay, and (2) an antiviral cell culture assay.
This assay is described in detail in published European Patent Application (EPA) 0 526 009, herein incorporated by reference. Using this assay, a number of the compounds, prepared above, were assayed for HIV protease inhibitory activity.
The assay is unable to test compounds at less than a concentration of 0.16 ng/mL.

Test [2] concerns HIV. Briefly: microbe, parasite or virus in culture. In kind it is cell-based. The conditions noted are these: Human immunodeficiency virus 1, concentration inhibiting 90% of the viral-induced toxicity; XTT, 450 nm; * (n) = average of n assays; read-out: Antiviral Activity IC90. How it is done:
In addition, the compounds described in the present application may be tested using an antiviral cell culture assay as described in Weislow, O.S., J. of National Cancer Institute, 81(8), pages 577-586 (Apr. 19, 1989) herein incorporated by reference.
This assay compares the viability of HIV-infected cells in a cell culture medium relative to the viability of such cells in the presence of a test compound. The concentration of test compound necessary to inhibit 90% of the virus is then measured using the viability of the cells as an indicator of viral inhibition. This assay is carried out using cell lines that are sensitive to the lyric effects of HIV infection.
Specifically, this assay utilizes the metabolic reduction of a tetrazolium reagent, 2,3-bis[2-methoxy-4-nitro-5-sulfophenyl]-5-[(phenylamino)carbonyl]-2H-tetrazolium hydroxide (XTT). In the presence of a viable cell, the tetrazolium reagent, XTT, is reduced to provide XTT formazan which may be quantified using colorimetric determination (at 450 nm). The intensity of the chromogenic signal is directly proportional to the concentration of the XTT formazan, thus providing a measure of the quantity of viable cells.

Where [3] appears, read: concentration inhibiting 50% of the enzyme, * = calculated average with n number of assays.
Where [4] appears, read: at 0.16 ng/mL, lowest testable concentration.

As to `CC(=O)N[C@H](CS(=O)(=O)c1ccc(F)cc1)C(=O)N[C@@H](CSc1ccccc1)[C@H](O)CN1C[C@H]2CCS[C@H]2C[C@H]1C(=O)NC(C)(C)C` [Example 21B, N-t-Butyl-octahydro-5[2R-hydroxy-3R-phenylthiomethyl-4-aza-5oxo-6S-N(acetyl)amino-7-p-fluorophenylsulfonyl-heptyl]-(3aR,7aS)-thieno[3,2-c]pyridine-(6S)-carboxamide], in test [1] (setting [3]), the IC50 is 1.83 nM. In addition, the IC90 in test [2] is 78 nM.

As to `CC(C)(C)NC(=O)[C@@H]1C[C@@H]2SCC[C@@H]2CN1C[C@@H](O)[C@H](Cc1ccccc1)NC(=O)[C@@H](CS(=O)(=O)c1ccc2ccccc2c1)NC(=O)C(F)(F)F` [Example 17C, N-t-Butyl-octahydro-5[2R-hydroxy-3S-phenylmethyl-4-aza-5-oxo-6S-N(trifluoromethylcarbonyl)amino-7-naphth-2-ylsulfonyl-heptyl]-(3aR,7aS)-thieno[3,2-c]pyridine-(6S)-carboxamide], the inhibition at 0.00016 µg/mL in test [1] (setting [4]) was found to be 76%. In test [2], the IC90 turned out to be 31 nM.

For `C[C@@H]1OCC[C@@H]1OC(=O)N[C@@H](CSc1ccccc1)[C@H](O)CN1C[C@H]2CCS[C@H]2C[C@H]1C(=O)NC(C)(C)C` [13B-26 mg sample], in test [1], the inhibition at 0.00016 µg/mL worked out at 71%. Besides, the IC90 in test [2] was 90 nM.

Consider `CC(C)(C)NC(=O)[C@@H]1C[C@@H]2SCC[C@@H]2CN1C[C@@H](O)[C@H](CSc1ccccc1)NC(=O)O[C@@H]1CCS(=O)(=O)C1` [11C-11 mg sample], for which the IC50 in test [1] (setting [3]) is 1.52 nM. Further, in test [2], the IC90 turned out to be 26 nM.

On to `CC(C)[C@H]1SCC[C@H]1OC(=O)N[C@@H](CSc1ccccc1)[C@H](O)CN1C[C@H]2CCS[C@H]2C[C@H]1C(=O)NC(C)(C)C` [9B-24 mg sample], for which, in test [1] (setting [4]), the inhibition at 0.00016 µg/mL was 53%. For the same compound, the IC90 in test [2] came to 78 nM.

As for `CC(=O)N[C@H](CS(=O)(=O)c1cccc2cccnc12)C(=O)N[C@@H](Cc1ccccc1)[C@H](O)CN1C[C@H]2CCS[C@H]2C[C@H]1C(=O)NC(C)(C)C` [Example 25, N-t-Butyl-octahydro-5[2R-hydroxy-3S-phenylmethyl-4-aza-5-oxo-6S-N(acetyl)amino-7-quinolin-8-ylsulfonyl-heptyl]-(3aR,7aS)-thieno[3,2-c]pyridine-(6S)-carboxamide], the IC50 in test [1] was 0.239 nM. Moreover, in test [2], the IC90 is 279 nM.

`CC(C)(C)NC(=O)[C@@H]1C[C@@H]2SCC[C@@H]2CN1C[C@@H](O)[C@H](Cc1ccccc1)NC(=O)[C@@H](CS(=O)(=O)c1ccc(F)cc1)NC(=O)C(F)(F)F` [Example 19C, N-t-Butyl-octahydro-5[2R-hydroxy-3S-phenylmethyl-4-aza-5-oxo-6S-N(trifluoromethylcarbonyl)amino-7-p-fluorophenylsulfonyl-heptyl]-(3aR,7aS)-thieno[3,2-c]pyridine-(6S)-carboxamide]: in test [1], the inhibition at 0.00016 µg/mL was found to be 85% and the IC50 is 1.16 nM. Also, in test [2], the IC90 was determined as 52 nM.
